Data on 3 compounds can be found in patent publication US8470878B2, “Heterocyclic sulfonamide derivatives” (Novartis AG, priority 2011, dated 2013).

Data set [1] is described as follows: Pharmacokinetics in athymic nude rats. Type of data set: in vivo. To be noted: rat; for AUC / clearance / half-life / Vd / bioavailability / Cmax: athymic nude, plasma; for bioavailability: p.o. (3 mg/kg) vs i.v. (0.5 mg/kg), oral bioavailability; for PK-parameters compared to Example 1: one-way analysis of variance. The procedure:
Pharmacokinetics in Athymic Nude Rats
For pharmacokinetics studies, the following parameters were calculated by non-compartmental regression analysis using Winnonlin 5.0 software (Pharsight, Mountain View, Calif., USA): half life in plasma (t1/2term); plasma clearance (CL); plasma maximum concentration (Cmax); plasma area-under-the-concentration-time-curve (AUC); and percent oral bioavailability (F %).

For the next data set, the target named is T1, BRAF-MEK-ERK cascade (Homo sapiens, UniProt Q02750).
T1 construct: human full length MEK1 kinase (Cat No. 14-706); purchased Upstate 14-557 (BRAF V599E); 14-706 (MEK1); 14-536 (ERK2)
Kind of data set: BRAF-MEK-ERK enzymatic cascade assay (TR-FRET). Type of data set: biochemical. To be noted: mean±SEM, n=3; 10 point dose response, 45 minutes pre-incubation. From the text:
A BRAF-MEK-ERK cascade assay is used to evaluate the effects of these compounds as inhibitors of the MAP kinase pathway. An enzymatic cascade assay is set up using recombinant human activated BRAF (V599E) kinase (Cat No. 14-557), human full length MEK1 kinase (Cat No. 14-706) and human full length active MAP Kinase 2/ERK2 (Cat No. 14-536) enzymes procured from Upstate. TR-FRET (Time resolved fluorescence resonance energy transfer) detection technology is used for the read out. […] The kinase reaction is stopped after 90 minutes with 10 mM EDTA and Lance detection mix (2 nM Eu-labeled phospho-serine/threonine antibody (Cat. No. AD0176-Perkin Elmer), 20 nM SA-APC (Cat No. CR130-100-Perkin Elmer) is added. The TR-FRET signal (Excitation at 340 nm, Emission at 615 nm and 665 nm) is read with 50 μs delay time on a Victor3 V fluorimeter. The data is calculated using the ratio of readings at 665 nm to 615 nm. The final concentration of DMSO is 2.5% in the assay. Compounds are screened at 10 μM concentration with pre-incubation of the enzymes in the presence of test compound for 45 minutes.
Each individual IC50 is determined using a 10 point dose response curve generated by GraphPad Prism software Version 4 (San Diego, Calif., USA) using non linear regression curve fit for sigmoidal dose response (variable slope).
These assays described above are fully detailed in Han, Shulin, et. al., Bioorganic & Medicinal Chemistry Letters (2005) 15, 5467-5473, and in Yeh, et. al., Clin Cancer Res (2007) 13 (5), 1576-1583.
For orientation: TR-FRET usually uses a lanthanide donor and a delayed reading to cut background.

In data set [2] the test system is DUSP6 expression in A375 tumors. Kind of data set: A375 B-RafV600E human melanoma model in rat, PK-PD experiment (DUSP6 expression in tumor, real time quantitative PCR). In kind it is in vivo. The conditions noted are these: A375 tumor bearing rats, single oral dose, at 12 h and 24 h post dosing; two-way analysis of variance, p=0.003 and p=0.006. The procedure:
A375 B-RafV600E Human Melanoma Model in Rat—PK-PD Experiment:
A375 cells were thawed using a 37° C. water bath. Cells were transferred to a tube containing 10 mls of warm DMEM medium. The tube was centrifuged for 5 minutes at 1200 rpm and the supernatant was discarded. The cell pellet was re-suspended and transferred to a 75 cm^2 tissue culture flask containing 15 mls of medium and cultured at 37° C. in a 5% CO2 incubator.
On the day of the cells implantation, cells were harvested (about 85% confluent), and re-suspended in cold medium containing 4 mg/ml of matrigel. This cell suspension was injected, subcutaneously, to athymic-nude pre-irradiated (500 rads) rats. Ten million cells (injection volume, 200 μL) were injected, subcutaneously, into the right flank region of the rats 24 hours after irradiation. Tumor bearing rats were randomized when the tumor volume reached approximately 500 mm^3 after about 15 to 20 days. Three rats were used for each time point.
Rats were treated orally with a single dose of 10, 30 and 60 mg/kg p.o. of Example 1A and 30 mg/kg of Example 1B. […] The mRNA expression levels of two direct target genes of MEK substrate P-Erk (DUSP6 and SPRY4) and an indirect target (BMF) can be measured. […] The tumor samples were pulverized, extracted and studied for expression of the […] DUSP6 using a real time quantitative PCR.

The term AUC denotes concentration integrated over time. A lower AUC goes with low exposure. Usually clearance stands for the rate of elimination divided by the concentration. Lower therefore signals inefficient removal. The term half-life denotes how long it takes for the measured level to halve. Higher therefore signals slow decline. For orientation: Vd means the apparent volume that relates the amount in the body to the concentration in plasma or blood. A higher Vd goes with extensive tissue distribution. The term Cmax denotes the peak of the concentration-time curve. One may read the IC50 as the concentration at which inhibition is half-maximal. Higher therefore signals weaker potency. In data set [1] (iv, i.v. (0.5 mg/kg)), `O=S(=O)(Nc1c(Nc2ccc(I)cc2F)c(F)c(F)c2ccoc12)C1(CC(O)CO)CC1` (racemic) [Example 1, 1-(2,3-Dihydroxy-propyl)-cyclopropanesulfonic acid [4,5-difluoro-6-(2-fluoro-4-iodo-phenylamino)-benzofuran-7-yl]amide] showed an AUC of 70 ± 9 µg·h/mL, a clearance of 7.6 mL/h/kg, a half-life of 15.6 ± 1.7 h and a Vd of 0.17 ± 0.006 L/kg. The bioavailability in data set [1] was 87%. In data set [1] (po, p.o. (3 mg/kg)), this compound returned an AUC of 365 ± 45 µg·h/mL and a Cmax of 9800 ± 700 ng/mL. The 50% inhibitory concentration (IC50) at BRAF-MEK-ERK cascade was 2.1 ± 0.58 nM.

Consider `O=S(=O)(Nc1c(Nc2ccc(I)cc2F)c(F)c(F)c2ccoc12)C1(C[C@H](O)CO)CC1` [Example 1A, (S)—N-(4,5-difluoro-6-((2-fluoro-4-iodophenyl)amino)benzofuran-7-yl)-1-(2,3-dihydroxypropyl)cyclopropane-1-sulfonamide], for which the “lowering levels of DUSP-6 in tumor” value in data set [2] is listed as “significantly more effective than Example-1B”. In data set [1] (iv, i.v. (0.5 mg/kg)), this compound gave an AUC of 126 ± 3 µg·h/mL, a clearance of 4 mL/h/kg, a half-life of 19.9 ± 0.8 h and a Vd of 0.11 ± 0.006 L/kg. In data set [1], the bioavailability came to 132% and the “PK-parameters compared to Example 1” value is given as “improved PK-parameters compared to Example 1”. In data set [1] (po, p.o. (3 mg/kg)), this compound yielded an AUC of 994 ± 30 µg·h/mL and a Cmax of 25600 ± 700 ng/mL. At BRAF-MEK-ERK cascade, this compound registered a 50% inhibitory concentration (IC50) of 2 ± 0.25 nM.

`O=S(=O)(Nc1c(Nc2ccc(I)cc2F)c(F)c(F)c2ccoc12)C1(C[C@@H](O)CO)CC1` [Example 1B, (R)—N-(4,5-difluoro-6-((2-fluoro-4-iodophenyl)amino)benzofuran-7-yl)-1-(2,3-dihydroxypropyl)cyclopropane-1-sulfonamide]: in data set [1] (iv, i.v. (0.5 mg/kg)), the AUC worked out at 100 ± 14 µg·h/mL, the clearance is 5.2 mL/h/kg, the half-life is 17.1 ± 1.8 h and the Vd worked out at 0.125 ± 0.006 L/kg. In data set [1], the bioavailability stood at 126% and the “PK-parameters compared to Example 1” value is on record as “improved PK-parameters compared to Example 1”. In data set [1] (po, p.o. (3 mg/kg)), this compound yielded an AUC of 752 ± 84 µg·h/mL and a Cmax of 25200 ± 2700 ng/mL. The compound also returned an IC50 against BRAF-MEK-ERK cascade of 1.6 ± 0.1 nM.
